Test results published in patent US7265152B2 (ViroPharma Incorporated, priority 2002, dated 2007).
Like-named read-outs stand apart in the source and are kept apart here.

Tests used:
[1] = test system: HCV replicon (BB7 sequence) in Huh-7-Clone A cells; assay: HCV replicon assay: ELISA of NS5A protein in replicon-containing cells (Inhibition of Viral RNA Replication); format: cell-based; conditions: read-out: Replicon
Outline: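 Huh-7-Clone A cells carrying subgenomic BB7 HCV replicon (G418-selectable) incubated 72 h with compound. NS5A protein quantified by cell ELISA: glutaraldehyde fixation, anti-NS5A monoclonal plus HRP secondary, TMB read at OD 650 nm. EC50 derived from 8-point serial dilution dose curve.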

HCV NS5B = biological target: T1, HCV NS5B (Hepatitis C virus genotype 1b, UniProt Q9WMX2); assay: Inhibition of viral RNA-dependent RNA polymerase (RdRp), in vitro biochemical assay; design: species or system HCV genotype 1b virus (BB7); conditions: read-out: HCV pol-BB7 IC50
T1 construct: fusion protein, of which the carboxyl terminal 21 amino acids were removed to enhance its solubility; His tag (GSHHHHHH); made in house; host or cells: E. coli
Outline: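 Purified recombinant NS5B from a genotype 1b consensus (BB7), His-tagged, E. coli-expressed, with the C-terminal 21 residues deleted. Inhibition of RdRp activity in vitro was measured, and IC50 is the concentration giving 50% inhibition.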

[2] = Hepatitis C virus, HCV replicon assay, ranges of EC50
[3] = HCV NS5B RdRp, BB7, class symbols A-D
[4] = Hepatitis C virus, HCV replicon, range of EC50
[5] = HCV NS5B RdRp, BB7, reported as range class
[6] = Hepatitis C virus, Huh-7-Clone A, NS5A ELISA, 72-hour incubation, ranges of EC50
[7] = purified His-tagged NS5B (BB7), carboxyl terminal 21 amino acids removed
[8] = HCV replicon assay, ranges of EC50
[9] = HCV NS5B RdRp, BB7, activity class
[10] = Hepatitis C virus, HCV replicon assay, ranges of 50% effective concentration (EC50)
[11] = HCV NS5B polymerase, BB7 (genotype 1b), values given as range classes A-D
[12] = Hepatitis C virus, ranges of EC50 in HCV replicon assay

CNC(=O)c1c(-c2ccc(F)cc2)oc2cc(-c3cc[nH]c3)c(OC)cc12 [Example 317, 2-(4-Fluoro-phenyl)-5-methoxy-6-(1H-pyrrol-3-yl)-benzofuran-3-carboxylic acid methylamide]
EC50 [1, 2]: < 1000 nM
IC50 (HCV NS5B; [3]): 5000 to 30000 nM

CNC(=O)c1c(-c2ccc(F)cc2)oc2cc(N3CCOCC3)c(OCc3cc(C)on3)cc12 [Example 218, 2-(4-Fluoro-phenyl)-5-(5-methyl-isoxazol-3-ylmethoxy)-6-morpholin-4-yl-benzofuran-3-carboxylic acid methylamide]
EC50 [1, 4]: < 1000 nM
IC50 (HCV NS5B; [5]): ≤ 500 nM

CNC(=O)c1c(-c2ccc(F)cc2)oc2cc(C(C)(C)O)c(OC)cc12 [Example 49, 2-(4-Fluoro-phenyl)-6-(1-hydroxy-1-methyl-ethyl)-5-methoxy-benzofuran-3-carboxylic acid methylamide]
EC50 [1, 6]: < 1000 nM
IC50 (HCV NS5B; [7]): ≤ 500 nM

2-(4-Fluoro-phenyl)-5-hydroxy-6-[methanesulfonyl-(2-oxo-propyl)-amino]-benzofuran-3-carboxylic acid methylamide [Example 354]
EC50 [1, 8]: < 10000 nM
IC50 (HCV NS5B; [9]): 500 to 5000 nM

CNC(=O)c1c(-c2ccc(F)cc2)oc2cc(C(C)NC)c(OC)cc12 (centres unmarked) [Example 304, 2-(4-Fluoro-phenyl)-5-methoxy-6-(1-methylamino-ethyl)-benzofuran-3-carboxylic acid methylamide]
EC50 [1, 2]: > 30000 nM
IC50 (HCV NS5B; [3]): 500 to 5000 nM

CNC(=O)c1c(-c2ccc(F)cc2)oc2cc(N3CCCC3)c(OC(C)C)cc12 [Example 6, 2-(4-Fluoro-phenyl)-5-isopropoxy-6-pyrrolidin-1-yl-benzofuran-3-carboxylic acid methylamide]
EC50 [1, 6]: < 1000 nM
IC50 (HCV NS5B; [7]): ≤ 500 nM

CNC(=O)c1c(-c2ccc(F)cc2)oc2cc(C(=O)CO)c(OC)cc12 [Example 436, 2-(4-Fluoro-phenyl)-6-(2-hydroxy-acetyl)-5-methoxy-benzofuran-3-carboxylic acid methylamide]
EC50 [1, 10]: < 10000 nM
IC50 (HCV NS5B; [11]): ≤ 500 nM

CNC(=O)c1c(-c2ccc(F)cc2)oc2cc(N3CCOCC3)c(OCc3cccc(C(=O)OC)c3)cc12 [Example 263, 3-[2-(4-Fluoro-phenyl)-3-methylcarbamoyl-6-morpholin-4-yl-benzofuran-5-yloxymethyl]-benzoic acid methyl ester]
EC50 [1, 2]: < 10000 nM
IC50 (HCV NS5B; [3]): ≤ 500 nM

CNC(=O)c1c(-c2ccc(N3CCOCC3)cc2)oc2ccc(OC)cc12 [Example 93, 5-Methoxy-2-(4-morpholin-4-yl-phenyl)-benzofuran-3-carboxylic acid methylamide]
EC50 [1, 12]: > 30000 nM
IC50 (HCV NS5B; HCV NS5B RdRp, BB7 genotype 1b): 500 to 5000 nM

CNC(=O)c1c(-c2ccc(F)cc2)oc2cc(N3CCOCC3)c(OC(C)C#N)cc12 (centres unmarked) [Example 229, 5-(Cyano-methyl-methoxy)-2-(4-fluoro-phenyl)-6-morpholin-4-yl-benzofuran-3-carboxylic acid methylamide]
EC50 [1, 4]: < 10000 nM
IC50 (HCV NS5B; [5]): ≤ 500 nM

CNC(=O)c1c(-c2ccc(F)cc2)oc2cc(CN(C)S(C)(=O)=O)c(OC(C)C)cc12 [Example 249, 2-(4-Fluoro-phenyl)-5-isopropoxy-6-[(methanesulfonyl-methyl-amino)-methyl]-benzofuran-3-carboxylic acid methylamide]
EC50 [1, 4]: < 10000 nM
IC50 (HCV NS5B; [5]): ≤ 500 nM

2-(4-Fluoro-phenyl)-5-isopropoxy-6-ureido-benzofuran-3-carboxylic acid methylamide [Example 135]
EC50 ([1]; ranges of EC50 in HCV replicon assay): < 10000 nM
IC50 (HCV NS5B; HCV NS5B RdRp, BB7 genotype 1b): ≤ 500 nM

CNC(=O)c1c(-c2ccc(F)cc2)oc2cc(-c3cc(C)n(C)n3)c(OC(C)C)cc12 [Example 248, 6-(1,5-Dimethyl-1H-pyrazol-3-yl)-2-(4-fluoro-phenyl)-5-isopropoxy-benzofuran-3-carboxylic acid methylamide]
EC50 [1, 4]: < 10000 nM
IC50 (HCV NS5B; [5]): 500 to 5000 nM

CC(C)Oc1cc2c(C(=O)NC3CC3)c(-c3ccc(F)cc3)oc2cc1NS(C)(=O)=O [Example 199, 2-(4-Fluoro-phenyl)-5-isopropoxy-6-methanesulfonylamino-benzofuran-3-carboxylic acid cyclopropylamide]
EC50 [1, 4]: < 1000 nM
IC50 (HCV NS5B; [5]): ≤ 500 nM

CNC(=O)c1c(-c2ccc(F)cc2)oc2cc(N(Cc3ccncc3)S(C)(=O)=O)c(OC)cc12 [Example 299, 2-(4-Fluoro-phenyl)-6-(methanesulfonyl-pyridin-4-ylmethyl-amino)-5-methoxy-benzofuran-3-carboxylic acid methylamide]
EC50 [1, 2]: < 1000 nM
IC50 (HCV NS5B; [3]): ≤ 500 nM

CNC(=O)c1c(-c2ccc(F)cc2)oc2cc(N(CCOC)S(C)(=O)=O)c(OC)cc12 [Example 240, 2-(4-Fluoro-phenyl)-6-[methanesulfonyl-(2-methoxy-ethyl)-amino]-5-methoxy-benzofuran-3-carboxylic acid methylamide]
EC50 [1, 4]: < 1000 nM
IC50 (HCV NS5B; [5]): ≤ 500 nM

CCNc1cc2oc(-c3ccc(F)cc3)c(C(=O)NC)c2c(Cl)c1O [Example 341, 4-Chloro-6-ethylamino-2-(4-fluoro-phenyl)-5-hydroxy-benzofuran-3-carboxylic acid methylamide]
EC50 [1, 2]: > 100000 nM
IC50 (HCV NS5B; [9]): 500 to 5000 nM

CNC(=O)c1c(-c2ccc(F)cc2)oc2cc(N3CCOCC3)c(OCc3nsc(Cl)n3)cc12 [Example 206, 5-(5-Chloro-[1,2,4]thiadiazol-3-ylmethoxy)-2-(4-fluoro-phenyl)-6-morpholin-4-yl-benzofuran-3-carboxylic acid methylamide]
EC50 [1, 4]: < 1000 nM
IC50 (HCV NS5B; [5]): 500 to 5000 nM

CNC(=O)c1c(-c2ccc(F)cc2)oc2cc(N(C)S(C)(=O)=O)c(OCC(=O)Nc3nccs3)cc12 [Example 415, 2-(4-Fluoro-phenyl)-6-(methanesulfonyl-methyl-amino)-5-(thiazol-2-ylcarbamoylmethoxy)-benzofuran-3-carboxylic acid methylamide]
EC50 [1, 10]: < 1000 nM
IC50 (HCV NS5B; [11]): ≤ 500 nM

CNC(=O)c1c(-c2ccccc2)oc2cc(OC)c(OC)cc12 [Example 94, 5,6-Dimethoxy-2-phenyl-benzofuran-3-carboxylic acid methylamide]
EC50 [1, 12]: < 1000 nM
IC50 (HCV NS5B; HCV NS5B RdRp, BB7 genotype 1b): ≤ 500 nM

CNC(=O)c1c(-c2ccc(F)cc2)oc2cc(NS(C)(=O)=O)c(C3CCCO3)cc12 (centres unmarked) [Example 441, 2-(4-Fluoro-phenyl)-6-methanesulfonylamino-5-(tetrahydro-furan-2-yl)-benzofuran-3-carboxylic acid methylamide]
EC50 [1, 2]: < 1000 nM
IC50 (HCV NS5B; HCV NS5B RdRp, BB7 (genotype 1b), reported as class symbols): ≤ 500 nM

CNC(=O)c1c(-c2ccc(F)cc2)oc2cc(C(C)=O)c(OC(C)C)cc12 [Example 196, 6-Acetyl-2-(4-fluoro-phenyl)-5-isopropoxy-benzofuran-3-carboxylic acid methyladime]
EC50 [1, 4]: < 1000 nM
IC50 (HCV NS5B; [5]): ≤ 500 nM

2-(4-Fluoro-phenyl)-5-methoxy-6-(2H-[1,2,4]triazol-3-yl)-benzofuran-3-carboxylic acid methylamide [Example 358]
EC50 [1, 8]: < 1000 nM
IC50 (HCV NS5B; [9]): ≤ 500 nM

CNC(=O)c1c(-c2ccc(F)cc2)oc2cc(C3NC(=O)NC3=O)c(OC)cc12 (centres unmarked) [Example 406, 6-(2,5-Dioxo-imidazolidin-4-yl)-2-(4-fluoro-phenyl)-5-methoxy-benzofuran-3-carboxylic acid methylamide]
EC50 [1, 10]: < 1000 nM
IC50 (HCV NS5B; [11]): 500 to 5000 nM

CNC(=O)c1c(-c2ccc(F)cc2)oc2cc(N(C)S(C)(=O)=O)c(OCc3ccc(C#N)cc3)cc12 [Example 357, 5-(4-Cyano-benzyloxy)-2-(4-fluoro-phenyl)-6-(methanesulfonyl-methyl-amino)-benzofuran-3-carboxylic acid methylamide]
EC50 [1, 2]: < 1000 nM
IC50 (HCV NS5B; [9]): ≤ 500 nM
